Counter-ions that a name gives are not always drawn. Like-named read-outs stand apart in the source and are kept apart here.
Key:
Jurkat cells = test: Annexin V/7-AAD apoptosis assay by flow cytometry; assay type: cell-based, human; conditions: 48 h; for early apoptotic cells (Q7-4) / late apoptotic cells (Q7-2) / necrotic cells (Q7-1) / living (vital) cells (Q7-3): at IC50 concentration (59 μM Dihydro BA; 4 μM 15, 15c, 18c; 8 μM 20c); for total number of apoptotic cells (early + late): at IC50 concentration (59 μM Dihydro BA; 4 μM 15c; 8 μM 20c)
Method: Apoptosis was determined by flow cytometric analysis of Annexin V and 7-aminoactinomycin D staining. Briefly, 200 μL of Guava Nexin reagent (Millipore, Bedford, MA, USA) was added to 5 × 10^5 cells in 200 μL, and the cells were incubated with the reagent for 20 min at room temperature in the dark. […] At the end of incubation, the cells were analyzed on NovoCyteTM 2000 FlowCytometry System (ACEA). Different states of cell death were defined as follows: normal cells are localized in the lower-left quadrant (Annexin V^−/PI^−); early apoptotic cells are in the lower-right quadrant (Annexin V^+/PI^−); late apoptotic cells and necrotic cells are in the upper-right quadrant (Annexin V^+/PI^+); and necrotic cells are in the upper-left quadrant (Annexin V^−/PI^+).
Figure 2 AnnexinV/7-AAD staining upon induction of apoptosis in Jurkat cells. […] Then, the cells were harvested, stained with Annexin V/7-AAD and analyzed by flow cytometry. The experiments were performed three times, and the results of the representative experiments are shown. The first cytogram represents an untreated cell sample (A); after incubation with dihydrobetulinic acid for 24 h (B) and for 48 h (C); after incubation with compound 15 for 24 h (D) and for 48 h (E); after incubation with compound 15c for 24 h (F) and for 48 h (G); after incubation with compound 18c for 24 h (H) and for 48 h (I); after incubation with compound 20c for 24 h (J) and for 48 h (K). Q7-1, necrotic cells; Q7-2, late apoptotic cells; Q7-3, living cells; Q7-4, early apoptotic cells. TEXT PRINTED IN THE PICTURE: (B) Dihydro BA: Q7-1 0.96% (59 μM); Q7-2 12.11% (59 μM); Q7-3 80.09% (59 μM); Q7-4 6.84% (59 μM) | (C) Dihydro BA: Q7-1 2.34% (59 μM); Q7-2 20.53% (59 μM); Q7-3 73.11% (59 μM); Q7-4 4.02% (59 μM) | (D) Compound 15: Q7-1 3.08% (4 μM); Q7-2 2.24% (4 μM); Q7-3 92.34% (4 μM); Q7-4 2.34% (4 μM) | (E) Compound 15: Q7-1 5.53% (4 μM); Q7-2 91.79% (4 μM); Q7-3 0.58% (4 μM); Q7-4 2.10% (4 μM) | (F) Compound 15c: Q7-1 1.51% (4 μM); Q7-2 2.64% (4 μM); Q7-3 84.92% (4 μM); Q7-4 10.93% (4 μM) | (G) Compound 15c: Q7-1 21.72% (4 μM); Q7-2 16.54% (4 μM); Q7-3 54.49% (4 μM); Q7-4 7.25% (4 μM) | (H) Compound 18c: Q7-1 1.48% (4 μM); Q7-2 3.70% (4 μM); Q7-3 91.14% (4 μM); Q7-4 3.67% (4 μM) | (I) Compound 18c: Q7-1 20.73% (4 μM); Q7-2 14.32% (4 μM); Q7-3 58.16% (4 μM); Q7-4 6.79% (4 μM) | (J) Compound 20c: Q7-1 3.78% (8 μM); Q7-2 1.72% (8 μM); Q7-3 92.26% (8 μM); Q7-4 2.24% (8 μM) | (K) Compound 20c: Q7-1 6.09% (8 μM); Q7-2 7.35% (8 μM); Q7-3 78.36% (8 μM); Q7-4 8.20% (8 μM) DOUBTS OF THE COPYIST ABOUT THIS PICTURE: Panel A (Control, untreated cells: Q7-1 3.75%, Q7-2 0.00%, Q7-3 96.24%, Q7-4 0.01%) left out of lines because it is not a substance / Dihydro BA panel B, Q7-3: 80.09% partly overlaid by plot points, 80.09 or 80.03 / Dihydro BA panel C, Q7-3: 73.11% partly overlaid by plot points / Compound 18c panel I, Q7-3: 58.16% small print, 58.16 or 58.18 / Compound 15 panel E, Q7-3: 0.58% small print, 0.58 or 0.56

[1] = test system: U937 (histiocytic lymphoma) cells; test: Cytotoxicity assay (7-AAD viability, flow cytometry), U937; assay type: cell-based, human; conditions: at least three experiments in duplicate, viable cells, read-out: IC50 U937
Method: (§1) Cells (Jurkat, K562, U937, HeLa, HEK293 and normal Fibroblasts) were purchased from Russian Cell Culture Collection (Institute of Cytology of the Russian Academy of Sciences, Saint Petersburg, Russia) and cultured according to standard mammalian tissue culture protocols and sterile technique. Human cell lines HEK293 and HeLa were obtained from the HPA Culture Collections (Salisbury, UK). All cell lines used in the study were tested and shown to be free of mycoplasma and viral contamination.
(§2) Cells were maintained in RPMI 1640 (Jurkat, K562, U937) (Gibco, Thermo Fisher Scientific, Waltham, MA, USA) supplemented with 4 mM glutamine, 10% FBS (Sigma, Burlington, MA, USA) and 100 units/mL penicillin-streptomycin (Sigma). All types of cells were grown in an atmosphere of 5% CO2 at 37 °C. The cells were subcultures at 2–3 days intervals. Adherent cells (HEK293, HeLa, fibroblasts) were suspended using trypsin/EDTA and counted after they have reached 80% confluency. Cells were then seeded in 24 well plates at 5 × 10^4 cells per well and incubated overnight. Jurkat, K562, U937 cells were subcultured at 2 day intervals with a seeding density of 1 × 10^5 cells per 24 well plates in RPMI with 10% FBS.
(§3) Viability (Live/dead) assessment was performed by staining cells with 7-AAD (7-Aminoactinomycin D) (Biolegend, San Diego, CA, USA). Cells were treated of test compounds with six different concentrations (1, 5, 10, 15, 30 and 60 μM). After treatment, cells were harvested, washed 1–2 times with phosphate-buffered saline (PBS) and centrifuged at 400× g for 5 min. Cell pellets were resuspended in 200 μL of flow cytometry staining buffer (PBS without Ca^2+ and Mg^2+, 2.5% FBS) and stained with 5 μL of 7-AAD staining solutionfor 15 min at room temperature in the dark. Samples were acquired on NovoCyteTM 2000 FlowCytometry System (ACEA, San Diego, CA, USA) equipped with 488 nm argon laser. Detection of 7-AAD emission was collected through a 675/30 nm filter in FL4 channel.

[2] = test system: HeLa (cervical cancer) cells; test: Cytotoxicity assay (7-AAD viability, flow cytometry), HeLa; assay type: cell-based, human; conditions: mean ± SE, at least three experiments in duplicate, viable cells
Method: as §1
(§4) HEK293, HeLa cell lines and fibroblasts were cultured as monolayers and maintained in Dulbecco’s modified Eagle’s medium (DMEM, Gibco BRL, Waltham, MA, USA) supplemented with 10% foetal bovine serum and 1% penicillin-streptomycin solution at 37 °C in a humidified incubator under a 5% CO2 atmosphere.
as §2, §3

[3] = test system: Jurkat (T-lymphoblastic leukemia) cells; test: cells; assay type: cell-based; conditions: mean ± SE, at least three experiments in duplicate, viable cells, read-out: IC50 Jurkat
Method: as §1, §2, §3

[4] = test system: K562 (chronic myeloid leukemia) cells; test: Cytotoxicity assay (7-AAD viability, flow cytometry), K562; assay type: cell-based, human; conditions: at least three experiments in duplicate, viable cells, read-out: IC50 K562
Method: as §1, §2, §3

[5] = test system: HEK293 (embryonic kidney) cells; test: Cytotoxicity assay (7-AAD viability, flow cytometry), HEK293; assay type: cell-based, human; conditions: at least three experiments in duplicate, viable cells
Method: as §1, §4, §2, §3

normal human fibroblasts = test: Cytotoxicity assay (7-AAD viability, flow cytometry), normal fibroblasts; assay type: cell-based; conditions: mean ± SE, at least three experiments in duplicate
Method: as §1, §4, §2
as §3, with “Cells were treated of test compounds with six different concentrations (1, 5, 10, 15, 30 and 60 μM).” left out

[6] = Homo sapiens, HEK293, mean ± SE

With `CC(=O)O[C@H]1CC[C@@]2(C)C(CC[C@]3(C)C2CCC2C4C(C(C)C)CC[C@]4(C(=O)NCCNC(=N)N)CC[C@]23C)C1(C)C` (stereo partly drawn) (as salt: hydrochloride) [Compound 10b, 3β-N-(2-Ethylgyanidine)-3-O-acetyl-lupane-28-amide hydrochloride] as the molecule, how does the melting point read?
Its melting point is 192 to 194 °C.

Which melting point does the source give for `CC(=O)O[C@H]1CC[C@@]2(C)C(CC[C@]3(C)C2CCC2C4C(C(C)C)CC[C@]4(C(=O)NCCCN4CCN(CCCNC(=N)N)CC4)CC[C@]23C)C1(C)C` (stereo partly drawn) (as salt: trifluoroacetate) [Compound 13a, 3β-N-{[3-(3-Propylguanidine)piperazinyl]propyl}-3-O-acetyl-lupane-28-amide trifluoroacetate] here?
Its melting point is 92 to 94 °C.

Which melting point does the source give for `CC(=O)O[C@H]1CC[C@@]2(C)C(CC[C@]3(C)C2CCC2C4C(C(C)C)CC[C@]4(C(=O)NCCN(CCNC(=N)N)CCNC(=N)N)CC[C@]23C)C1(C)C` (single isomer, unassigned) (as salt: hydrochloride) [Compound 12b, 3β-N-[2-(N,N′-bis-Ethylgyanidine)-aminoethyl]-3-O-acetyl-lupane-28-amide dihydrochloride] here?
Its melting point is 198 to 200 °C.

Which melting point does the source give for `CC(=O)O[C@H]1CC[C@@]2(C)C(CC[C@]3(C)C2CCC2C4C(C(C)C)CC[C@]4(C(=O)NCCN(CCNC(=N)N)CCNC(=N)N)CC[C@]23C)C1(C)C` (single isomer, unassigned) (as salt: trifluoroacetate) [Compound 12a, 3β-N-[2-(N,N′-bis-Ethylgyanidine)-aminoethyl]-3-O-acetyl-lupane-28-amide trifluoroacetate] here?
Its melting point is 116 to 118 °C.

What does the source list for `CC(=O)O[C@H]1CC[C@@]2(C)C(CC[C@]3(C)C2CC=C2C4[C@@H](C)[C@H](C)CC[C@]4(C(=O)OCC(CO)(CO)NC(=N)N)CC[C@]23C)C1(C)C` (single isomer, unassigned) [Compound 18c, 3β-[2-Guanidine-3-hydroxy-2-(hydroxymethyl)propyl]-3-O-acetyl-urs-12-en-28-oate hydrochloride]?
early apoptotic cells (Q7-4) (Jurkat cells): 6.8%; late apoptotic cells (Q7-2) (Jurkat cells): 14.3%; necrotic cells (Q7-1) (Jurkat cells): 20.7%; IC50 ([1]; mean ± SE): 5.3 ± 0.29 µM; IC50 [2]: 12 ± 0.29 µM; IC50 [3]: 3.8 ± 0.23 µM; IC50 ([4]; mean ± SE): 11 ± 0.18 µM; IC50 ([5]; mean ± SE): 14 ± 0.34 µM; IC50 (normal human fibroblasts): 51 ± 0.26 µM

With `CC(C)C1CC[C@]2(C(=O)NCCCCN)CC[C@]3(C)C(CCC4[C@@]5(C)CCC(=O)C(C)(C)C5CC[C@]43C)C12` (stereo partly drawn) [Compound 4, N-(4-Aminobuthyl)-3-oxolupane-28-amide] as the molecule, how does the IC50 ([1]; Homo sapiens, U-937, mean ± SE) read?
Its IC50 is 1.7 ± 0.36 µM.

And the IC50 ([2]; Homo sapiens, HeLa)?
The IC50 was 2.8 ± 0.28 µM.

What about the IC50 ([3]; Homo sapiens, Jurkat) of the same molecule?
The IC50 was 1.4 ± 0.41 µM.

And the IC50 ([4]; Homo sapiens, K562, mean ± SE)?
The IC50 was 1.3 ± 0.49 µM.

What about the melting point of the same molecule?
Its melting point is 170 to 172 °C.

What about the IC50 [5, 6] of the same molecule?
Its IC50 is 2.4 ± 0.35 µM.

And the IC50 (normal human fibroblasts; Homo sapiens, Fibroblast)?
Its IC50 is 3.4 ± 0.19 µM.

Which “living (vital) cells (Q7-3)” value (Jurkat cells) does the source give for `CC(=O)O[C@H]1CC[C@@]2(C)C(CC[C@]3(C)C2CC=C2C4CC(C)(C)CC[C@]4(C(=O)OCC(CO)(CO)NC(=N)N)CC[C@]23C)C1(C)C` (stereo partly drawn) [Compound 20c, 3β-[2-Guanidine-3-hydroxy-2-(hydroxymethyl)propyl]-3-O-acetyl-olean-12-en-28-oate hydrochloride] here?
The value was 78.4%.

And the “necrotic cells (Q7-1)” value (Jurkat cells)?
The value was 6.1%.

What about the “total number of apoptotic cells (early + late)” value (Jurkat cells) of the same molecule?
The value was “about 15.5%”.

What about the IC50 ([1]; mean ± SE) of the same molecule?
Its IC50 is 6.8 ± 0.11 µM.

What about the IC50 [2] of the same molecule?
The IC50 was 17 ± 0.32 µM.

And the IC50 [3]?
Its IC50 is 7.6 ± 0.33 µM.

What about the IC50 ([4]; mean ± SE) of the same molecule?
Its IC50 is 13 ± 0.45 µM.

What about the IC50 ([5]; mean ± SE) of the same molecule?
The IC50 was 19 ± 0.17 µM.

And the IC50 (normal human fibroblasts)?
The IC50 was 54 ± 0.12 µM.

With `CC(C)[C@@H]1CC[C@]2(C(=O)O)CC[C@]3(C)[C@H](CC[C@@H]4[C@@]5(C)CC[C@H](O)C(C)(C)[C@@H]5CC[C@]43C)[C@@H]12` [Dihydro BA, 20,29-dihydrobetulinic acid, reference compound] as the molecule, how does the “early apoptotic cells (Q7-4)” value (Jurkat cells) read?
The value was 4.0%.

What about the “late apoptotic cells (Q7-2)” value (Jurkat cells) of the same molecule?
The value was 20.5%.

And the “living (vital) cells (Q7-3)” value (Jurkat cells)?
The value was 73.1%.

And the “total number of apoptotic cells (early + late)” value (Jurkat cells)?
Its value is “around 24%”.

What about the IC50 ([1]; Homo sapiens, U-937, mean ± SE) of the same molecule?
Its IC50 is 39 ± 0.38 µM.

And the IC50 ([2]; Homo sapiens, HeLa)?
The IC50 was 132 ± 0.47 µM.

What about the IC50 ([3]; Homo sapiens, Jurkat) of the same molecule?
The IC50 was 59 ± 0.31 µM.

What about the IC50 ([4]; Homo sapiens, K562, mean ± SE) of the same molecule?
Its IC50 is 44 ± 0.24 µM.

What about the IC50 [5, 6] of the same molecule?
The IC50 was 128 ± 0.32 µM.

What about the IC50 (normal human fibroblasts; Homo sapiens, Fibroblast) of the same molecule?
Its IC50 is 517 ± 0.26 µM.

Reference: article PMC6278366, “Synthesis and Evaluation of Anticancer Activities of Novel C-28 Guanidine-Functionalized Triterpene Acid Derivatives” (Molecules, 2018)
